Data as given in PubChem BioAssay AID2060513 (Molecular Pharmacology Branch, DTP, NCI, 2025).

Test system: 299254-011-R-J1-PDC complex spheroids viability
Assay: Anticancer human tumor 299254-011-R-J1-PDC patient-derived melanoma cell line growth inhibition [GQUAD]
Settings: for IC50: curve of first compound; for viability, T/C: stronger effect = lower value
Summary of the method: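 Tumor cells were grown as complex spheroids with HUVEC endothelial cells and mesenchymal stem cells as stroma. G-quadruplex stabilizers were combined with targeted agents over half-log dilutions from near the clinical Cmax, or from 10 microM.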

[1] = second compound 0.0316 µM, first compound 0.0316 µM
[2] = second compound 0.0316 µM, first compound 0.316 µM
[3] = second compound 0.1 µM, first compound 0.0316 µM
[4] = second compound 0.1 µM, first compound 0.316 µM
[5] = second compound 0.316 µM, first compound 0.0316 µM
[6] = second compound 0.316 µM, first compound 0.316 µM
[7] = second compound 1 µM, first compound 0.0316 µM
[8] = second compound 1 µM, first compound 0.316 µM
[9] = second compound 3.16 µM, first compound 0.0316 µM
[10] = second compound 3.16 µM, first compound 0.316 µM
[11] = second compound 10 µM, first compound 0.0316 µM
[12] = second compound 10 µM, first compound 0.316 µM
[13] = second compound 0.0316 µM, first compound 0.1 µM
[14] = second compound 0.0316 µM, first compound 1 µM
[15] = second compound 0.0316 µM, first compound 3.16 µM
[16] = second compound 0.0316 µM, first compound 10 µM
[17] = second compound 0.1 µM, first compound 0.1 µM
[18] = second compound 0.1 µM, first compound 1 µM
[19] = second compound 0.1 µM, first compound 3.16 µM
[20] = second compound 0.1 µM, first compound 10 µM
[21] = second compound 0.316 µM, first compound 0.1 µM
[22] = second compound 0.316 µM, first compound 1 µM
[23] = second compound 0.316 µM, first compound 3.16 µM
[24] = second compound 0.316 µM, first compound 10 µM
[25] = second compound 1 µM, first compound 0.1 µM
[26] = second compound 1 µM, first compound 1 µM
[27] = second compound 1 µM, first compound 3.16 µM
[28] = second compound 1 µM, first compound 10 µM
[29] = second compound 3.16 µM, first compound 0.1 µM
[30] = second compound 3.16 µM, first compound 1 µM
[31] = second compound 3.16 µM, first compound 3.16 µM
[32] = second compound 3.16 µM, first compound 10 µM
[33] = second compound 10 µM, first compound 0.1 µM
[34] = second compound 10 µM, first compound 1 µM
[35] = second compound 10 µM, first compound 3.16 µM
[36] = second compound 10 µM, first compound 10 µM
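Also: spheroids exposed to the agents for seven days before readout.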
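For viability, T/C in this document: percent viability relative to DMSO vehicle control wells = 100%.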

Cn1ncnc1[C@H]1c2n[nH]c(=O)c3cc(F)cc(c23)N[C@@H]1c1ccc(F)cc1 + Cc1[nH]c2ccc(F)cc2c1-c1nc2c3cccnc3c3ncccc3c2[nH]1
IC50 (second compound 0.0316 µM): > 316 nM | IC50 (second compound 0.1 µM): > 316 nM | IC50 (second compound 0.316 µM): > 316 nM | IC50 (second compound 1 µM): > 316 nM | IC50 (second compound 3.16 µM): > 316 nM | IC50 (second compound 10 µM): > 316 nM | viability, T/C (second compound 0.0316 µM, first compound 0.000999 µM): 93.7% | viability, T/C (second compound 0.0316 µM, first compound 0.00316 µM): 105% | viability, T/C (second compound 0.0316 µM, first compound 0.00999 µM): 117% | viability, T/C [1]: 90.2% | viability, T/C (second compound 0.0316 µM, first compound 0.0999 µM): 88.3% | viability, T/C [2]: 101% | viability, T/C (second compound 0.1 µM, first compound 0.000999 µM): 101% | viability, T/C (second compound 0.1 µM, first compound 0.00316 µM): 103% | viability, T/C (second compound 0.1 µM, first compound 0.00999 µM): 88.1% | viability, T/C [3]: 92.7% | viability, T/C (second compound 0.1 µM, first compound 0.0999 µM): 118% | viability, T/C [4]: 96.2% | viability, T/C (second compound 0.316 µM, first compound 0.000999 µM): 92.8% | viability, T/C (second compound 0.316 µM, first compound 0.00316 µM): 108% | viability, T/C (second compound 0.316 µM, first compound 0.00999 µM): 113% | viability, T/C [5]: 94% | viability, T/C (second compound 0.316 µM, first compound 0.0999 µM): 98.2% | viability, T/C [6]: 105% | viability, T/C (second compound 1 µM, first compound 0.000999 µM): 86.7% | viability, T/C (second compound 1 µM, first compound 0.00316 µM): 105% | viability, T/C (second compound 1 µM, first compound 0.00999 µM): 87.1% | viability, T/C [7]: 112% | viability, T/C (second compound 1 µM, first compound 0.0999 µM): 112% | viability, T/C [8]: 102% | viability, T/C (second compound 3.16 µM, first compound 0.000999 µM): 95.3% | viability, T/C (second compound 3.16 µM, first compound 0.00316 µM): 88.2% | viability, T/C (second compound 3.16 µM, first compound 0.00999 µM): 96.3% | viability, T/C [9]: 84.6% | viability, T/C (second compound 3.16 µM, first compound 0.0999 µM): 88.6% | viability, T/C [10]: 118% | viability, T/C (second compound 10 µM, first compound 0.000999 µM): 96.7% | viability, T/C (second compound 10 µM, first compound 0.00316 µM): 111% | viability, T/C (second compound 10 µM, first compound 0.00999 µM): 84% | viability, T/C [11]: 95.7% | viability, T/C (second compound 10 µM, first compound 0.0999 µM): 108% | viability, T/C [12]: 99.5%

CC1COCCN1c1cc(-c2ccnn2C)c2ccnc(-c3ccn[nH]3)c2n1 (stereo unspecified) + Cc1[nH]c2ccc(F)cc2c1-c1nc2c3cccnc3c3ncccc3c2[nH]1
IC50 (second compound 0.0316 µM): 180 nM | IC50 (second compound 0.1 µM): 177 nM | IC50 (second compound 0.316 µM): 245 nM | IC50 (second compound 1 µM): 201 nM | IC50 (second compound 3.16 µM): 187 nM | IC50 (second compound 10 µM): 88.9 nM | viability, T/C [1]: 111% | viability, T/C [13]: 65% | viability, T/C [2]: 36.1% | viability, T/C [14]: 19.6% | viability, T/C [15]: 21.5% | viability, T/C [16]: 13.1% | viability, T/C [3]: 80.3% | viability, T/C [17]: 70.3% | viability, T/C [4]: 29.1% | viability, T/C [18]: 21.6% | viability, T/C [19]: 17% | viability, T/C [20]: 12.9% | viability, T/C [5]: 90% | viability, T/C [21]: 88.4% | viability, T/C [6]: 38.8% | viability, T/C [22]: 22.4% | viability, T/C [23]: 14.2% | viability, T/C [24]: 15% | viability, T/C [7]: 93.1% | viability, T/C [25]: 70.4% | viability, T/C [8]: 36.5% | viability, T/C [26]: 21.9% | viability, T/C [27]: 16.4% | viability, T/C [28]: 17.4% | viability, T/C [9]: 84.5% | viability, T/C [29]: 71.8% | viability, T/C [10]: 31.8% | viability, T/C [30]: 14.5% | viability, T/C [31]: 12.2% | viability, T/C [32]: 15.2% | viability, T/C [11]: 74.1% | viability, T/C [33]: 47% | viability, T/C [12]: 26.7% | viability, T/C [34]: 17.4% | viability, T/C [35]: 12.1% | viability, T/C [36]: 15.4%

CCCS(=O)(=O)Nc1ccc(F)c(C(=O)c2c[nH]c3ncc(-c4ccc(Cl)cc4)cc23)c1F + CN(C)c1ccc(Nc2c3ccc(NC(=O)CCN4CCCC4)cc3nc3cc(NC(=O)CCN4CCCC4)ccc23)cc1
IC50 (second compound 0.0316 µM): 8590 nM | IC50 (second compound 0.1 µM): 8100 nM | IC50 (second compound 0.316 µM): 8910 nM | IC50 (second compound 1 µM): 7960 nM | IC50 (second compound 3.16 µM): 8990 nM | IC50 (second compound 10 µM): 7920 nM | viability, T/C [1]: 116% | viability, T/C [13]: 111% | viability, T/C [2]: 116% | viability, T/C [14]: 103% | viability, T/C [15]: 108% | viability, T/C [16]: 41% | viability, T/C [3]: 105% | viability, T/C [17]: 104% | viability, T/C [4]: 101% | viability, T/C [18]: 88.4% | viability, T/C [19]: 108% | viability, T/C [20]: 38.5% | viability, T/C [5]: 106% | viability, T/C [21]: 111% | viability, T/C [6]: 89.2% | viability, T/C [22]: 103% | viability, T/C [23]: 112% | viability, T/C [24]: 43.9% | viability, T/C [7]: 105% | viability, T/C [25]: 111% | viability, T/C [8]: 97.4% | viability, T/C [26]: 88.8% | viability, T/C [27]: 94.4% | viability, T/C [28]: 39.5% | viability, T/C [9]: 98.3% | viability, T/C [29]: 95.1% | viability, T/C [10]: 112% | viability, T/C [30]: 97% | viability, T/C [31]: 90.1% | viability, T/C [32]: 45.8% | viability, T/C [11]: 110% | viability, T/C [33]: 146% | viability, T/C [12]: 116% | viability, T/C [34]: 119% | viability, T/C [35]: 111% | viability, T/C [36]: 34.5%
